For this test, the system named is Type IV PDE. The test can be described thus: Type IV PDE inhibitory activity. Type of test: biochemical. To be noted: Type IV PDE partially purified from rat neutrophils; 3H-cAMP substrate, 30° C., 30 minutes. The procedure: Type I, III, IV, and V PDE isozymes were prepared to study the PDE inhibitory activities of and selectivities with the compound of the invention [Trends Pharmacol Sci., 12, 19-27 (1992)]. Type I PDE was purchased from Sigma Corp. Type III, IV, and V PDE isozymes were partially purified from platelets (Type III and V) or neutrophils (Type IV) collected from rats. Each enzyme source was homogenized in a buffer (pH 6.5) containing 20 mM bisTris, 2 mM EDTA (i.e., ethylenediamine tetraacetate), 0.1 mM PMSF (i.e., phenylmethylsulfonyl fluoride), 5 mM 2-mercaptoethanol, 0.001 mM pepstatin and 0.01 mM leupeptin and was centrifuged at 30000×G for 30 minutes to obtain a supernatant, which was applied to an ion exchange column (Q-sepharose First Flow, Pharmacia Corp.) and was eluted with 0 to 1M sodium acetate. Partially purified isozymes were identified by observing the effects by conventional inhibitors.
Each PDE isozyme and the test compound dissolved in DMSO (i.e., dimethyl sulfoxide) were added to 50 mM Tris-HCl buffer containing 5 mM magnesium chloride. ^3 H-cAMP (for type III and IV PDE) or ^3 H-cGMP (for type I and V PDE) were added as substrates and were reacted at 30° C. for 30 minutes. The reaction was terminated by placing the test tube in boiling water of 100° C. for 5 minutes. The nucleotides formed by PDE were broken down by 5'-nucleotidase to ^3 H-adenosine or 3H-guanosine. The unreacted substrate and reaction product were separated through an ion-exchange column (i.e., QAE sephadex, Pharmacia Corp.) The eluted ^3 H-nucleoside was measured for its radioactivity by a liquid scintillation counter. The inhibitory activities of the compound of the present invention are shown by the IC50 value (M). Further, the inhibitory activities of the test samples against Type I, III, and V are 1/10 or less than that against type IV.
The IC50 is the concentration at which inhibition is half-maximal. High values mean weaker potency in that assay, low ones greater potency in that assay. Consider `COc1ccc(C2(c3ccccc3)CN(C)C(=O)CO2)cc1OC1CCCC1` (stereo not drawn) [Compound No. 22, 2-(3-cyclopentyloxy-4-methoxyphenyl)-4-methyl-2-phenylmorpholin-5-one], for which inhibition was half-maximal at 0.25 µM (IC50).
The result for `COc1ccc(C2(C)CNC(=O)CO2)cc1OC1CCCC1` (stereo not drawn) [Compound No. 10, 2-(3-cyclopentyloxy-4-methoxyphenyl)-2-methylmorpholin-5-one] reads 3 µM; that for `COc1ccc(C2CNC(=O)CO2)cc1OCC1(c2ccccc2)CC1` (stereo not drawn) [Compound No. 34, 2-[4-methoxy-3-[(1-phenylcyclopropyl)methoxy]phenyl]morpholin-5-one], 1.9 µM; that for `COc1ccc(C2CN(C)C(=O)CO2)cc1OCC1CCC1` (stereo not drawn) [Compound No. 48, 2-(3-cyclobutylmethoxy-4-methoxyphenyl)-4-methylmorpholin-5-one], 0.38 µM.
The result for `CCN1CC(c2ccc(OC)c(OC3CCCC3)c2)OCC1=O` (stereo not drawn) [Compound No. 17, 2-(3-cyclopentyloxy-4-methoxyphenyl)-4-ethylmorpholin-5-one] reads 0.71 µM; that for `COc1ccc(C2CN(C)C(=O)CO2)cc1OCCOCc1ccccc1` (stereo not drawn) [Compound No. 46, 2-[4-methoxy-3-(2-benzyloxyethoxy)phenyl]-4-methylmorpholin-5-one], 0.57 µM.
To `COc1ccc(C2CNC(=O)CO2)cc1OCCc1ccccc1` (stereo not drawn) [Compound No. 4, 2-(4-methoxy-3-phenethyloxyphenyl)morpholin-5-one] belongs 2.7 µM; to `COc1ccc(C2CN(C)C(=O)CO2)cc1OCCCCCc1ccccc1` (stereo not drawn) [Compound No. 29, 2-[4-methoxy-3-(5-phenylpentyloxy)phenyl]-4-methylmorpholin-5-one], 0.48 µM; to `COc1ccc(C2CN(C)C(=O)CO2)cc1OCC1CC1` (stereo not drawn) [Compound No. 52, 2-(3-cyclopropylmethoxy-4-methoxyphenyl)-4-methylmorpholin-5-one], 2.8 µM.
Consider `COc1ccc(C2CN(C(C)=O)C(=O)CO2)cc1OC1CCCC1` (stereo not drawn) [Compound No. 20, 4-acetyl-2-(3-cyclopentyloxy-4-methoxyphenyl)morpholin-5-one], for which the IC50 was determined as 2 µM.
To `COc1ccc(C2CNC(=O)CO2)cc1OCCC1Cc2ccccc2C1` (stereo not drawn) [Compound No. 50, 2-[3-[2-(2-indanyl)ethoxy]-4-methoxyphenyl]morpholin-5-one] belongs 3.8 µM.
To `COc1ccc(C2CNC(=O)CO2)cc1OCCc1cccc2ccccc12` (stereo not drawn) [Compound No. 37, 2-[4-methoxy-3-[2-(1-naphthyl)ethoxy]phenyl]morpholin-5-one] belongs 2.7 µM; to `COc1ccc(C2CNC(=O)CO2)cc1OCCCCCc1ccccc1` (stereo not drawn) [Compound No. 26, 2-[4-methoxy-3-(5-phenylpentyloxy)phenyl]morpholin-5-one], 0.62 µM.
The result for `COc1ccc(C2CN(C)C(=O)CO2)cc1OCCC1Cc2ccccc2C1` (stereo not drawn) [Compound No. 51, 2-[3-[2-(2-indanyl)ethoxy]-4-methoxvphenyl]-4-methylmorpholin-5-one] reads 0.1 µM.
On to `COc1ccc(C2CN(C)C(=O)CO2)cc1OCC1CCCC1` (stereo not drawn) [Compound No. 44, 2-(3-cyclopentylmethoxy-4-methoxyphenyl)-4-methylmorpholin-5-one], for which the 50% inhibitory concentration (IC50) is 0.77 µM.
`CCN1CC(c2ccc(OC)c(OC3Cc4ccccc4C3)c2)OCC1=O` (stereo not drawn) [Compound No. 40, 4-ethyl-2-[3-(2-indanyloxy)-4-methoxyphenyl]morpholin-5-one] had an IC50 of 0.093 µM.
The molecule `COc1ccc(C2CN(C)C(=O)CO2)cc1O[C@H]1CC[C@H](c2ccccc2)CC1` (relative stereo) [Compound No. 45, 2-[4-methoxy-3-(trans-4-phenylcyclohexyloxy)phenyl]-4-methylmorpholin-5-one] displayed an IC50 of 0.58 µM.
The result for `COc1ccc(C2CN(C)C(=O)CO2)cc1OCCc1cccc2ccccc12` (stereo not drawn) [Compound No. 47] reads 0.3 µM; that for `COc1ccc(C2CN(C)C(=O)CO2)cc1OCC(C)C` (stereo not drawn) [Compound No. 49, 2-[3-(2-methylpropoxy)-4-methoxyphenyl]-4-methylmorpholin-5-one], 0.35 µM.
To `COc1ccc(C2(c3ccccc3)CNC(=O)CO2)cc1OC1Cc2ccccc2C1` (stereo not drawn) [Compound No. 24, 2-[3-(2-indanyloxy)-4-methoxyphenyl]-2-phenylmorpholin-5-one] belongs 0.03 µM; to `CCOC(=O)CN1CC(c2ccc(OC)c(OC3CCCC3)c2)OCC1=O` (stereo not drawn) [Compound No. 15, 2-(3-cyclopentyloxy-4-methoxyphenyl)-4-ethoxycarbonylmethylmorpholin-5-one], 7.9 µM; to `COc1ccc(C2(c3ccccc3)CN(Cc3ccncc3)C(=O)CO2)cc1OC1CCCC1` (stereo not drawn) [Compound No. 23, 2-(3-cyclopentyloxy-4-methoxyphenyl)-2-phenyl-4-(4-pyridylmethyl)morpholin-5-one], 2.4 µM.
The result for `COc1ccc(C2CN(Cc3ccc4ccccc4n3)C(=O)CO2)cc1OC1CCCC1` (stereo not drawn) [Compound No. 18, 2-(3-cyclopentyloxy-4-methoxyphenyl)-4-(2-quinolylmethyl)morpholin-5-one] reads 0.45 µM.
For the molecule `COc1ccc(C2CNC(=O)CO2)cc1OCCOCc1ccccc1` (stereo not drawn) [Compound No. 30, 2-[3-[2-(benzyloxy)ethoxy]-4-methoxyphenyl]morpholin-5-one], the IC50 is 5.7 µM.
As for `COc1ccc(C2CNC(=O)CO2)cc1OCc1ccccc1` (stereo not drawn) [Compound No. 3, 2-(3-benzyloxy-4-methoxyphenyl)morpholin-5-one], inhibition was half-maximal at 28 µM (IC50). This IC50 is about 4.9-fold higher than that of the molecule before.
To `COc1ccc(C2CN(C)C(=O)CO2)cc1OC1Cc2ccccc2C1` (stereo not drawn) [Compound No. 21, 2-[3-(2-indanyloxy)-4-methoxyphenyl]-4-methylmorpholin-5-one] belongs 0.044 µM; to `COc1ccc(C2CNC(=O)CO2)cc1OC1Cc2ccccc2C1` (stereo not drawn) [Compound No. 6, 2-[3-(2-indanyloxy)-4-methoxyphenyl]morpholin-5-one], 0.32 µM; to `COc1ccc(C2(C)CN(C)C(=O)CO2)cc1OC1Cc2ccccc2C1` (stereo not drawn) [Compound No. 28, 2.4-dimethyl-2-[3-(2-indanyloxy)-4-methoxyphenyl]morpholin-5-one], 0.03 µM.
As for `CCCCN1CC(c2ccc(OC)c(OC3CCCC3)c2)OCC1=O` (stereo not drawn) [Compound No. 19, 4-butyl-2-(3-cyclopentyloxy-4-methoxyphenyl)morpholin-5-one], the IC50 came to 5.9 µM.
With `COc1ccc(C2CNC(=O)CO2)cc1OCCc1ccc(F)cc1` (stereo not drawn) [Compound No. 32, 2-[3-[2-(4-fluorophenyl)ethoxy]-4-methoxyphenyl]morpholin-5-one], the IC50 amounted to 1.7 µM. Compared with the last molecule, the IC50 is about 3.5-fold lower.
The result for `COc1ccc(C2CNC(=O)CO2)cc1O[C@H]1CC[C@H](c2ccccc2)CC1` (relative stereo) [Compound No. 33, 2-[4-methoxy-3-(trans-4-phenylcyclohexyloxy)phenyl]morpholin-5-one] reads 7.2 µM.
To `COc1ccc(C2CN(C)C(=O)CO2)cc1OC` (stereo not drawn) [Compound No. 12, 2-(3.4-dimethoxyphenyl)-4-methylmorpholin-5-one] belongs 4.7 µM; to `COc1ccc(C2CN(C)C(=O)CO2)cc1OCC1(C)CC1` (stereo not drawn) [Compound No. 43], 0.61 µM.
In turn, `COc1ccc(C2CN(C)C(=O)CO2)cc1OCC1(c2ccccc2)CC1` (stereo not drawn) [Compound No. 42, 2-[3-[(1-phenylcyclopropyl)methoxy]-4-methoxyphenyl]-4-methylmorpholin-5-one] showed an IC50 of 0.31 µM.
The result for `COc1ccc(C2CNC(=O)CO2)cc1OC1CCCCC1` (stereo not drawn) [Compound No. 7, 2-(3-cyclohexyloxy-4-methoxyphenyl)morpholin-5-one] reads 11 µM; that for `COc1ccc(C2(c3ccccc3)CNC(=O)CO2)cc1OC1CCCC1` (stereo not drawn) [Compound No. 11, 2-(3-cyclopentyloxy-4-methoxyphenyl)-2-phenylmorpholin-5-one], 0.074 µM; that for `COc1ccc(C2(c3ccccc3)CN(C)C(=O)CO2)cc1OC1Cc2ccccc2C1` (stereo not drawn) [Compound No. 25, 2-[3-(2-indanyloxy)-4-methoxyphenyl]-4-methyl-2-phenylmorpholin-5-one], 0.11 µM.
The result for `COc1ccc(C2CN(Cc3ccncc3)C(=O)CO2)cc1OC1CCCC1` (stereo not drawn) [Compound No. 16, 2-(3-cyclopentyloxy-4-methoxyphenyl)-4-(4-pyridylmethyl)morpholin-5-one] reads 5.5 µM.
To `COc1ccc(C2CN(C)C(=O)CO2)cc1OCCc1ccc(F)cc1` (stereo not drawn) [Compound No. 41, 2-[3-[2-(4-fluorophenyl)ethoxy]-4-methoxyphenyl]-4-methylmorpholin-5-one] belongs 0.38 µM.

The values above are taken from US6265402A, “Use of 2-phenylmorpholin-5-one derivatives” (Nikken Chemicals Co., Ltd., priority 1996, dated 2001).
